Test results published in publication PMC4605843, “Cell-Penetrating Peptides Selectively Cross the Blood-Brain Barrier In Vivo” (PLoS ONE, 2015).
“And” between values parts separate entries of the source, which are not always exact repeats. Equal entries are not always repeated.

Assays:
[1] = In vitro metabolic stability in mouse serum; format: in vitro ADME
Procedure: (§1) Prior to use, the protein content of each homogenate was determined using the Pierce Modified Lowry Protein Assay method (Thermo Scientific) to generate a stock solution with a protein concentration of 0.6 mg/ml by dilution with Krebs-Henseleit buffer (pH 7.4, Sigma-Aldrich). […] After sampling, enzymatic activity was terminated by additional heat inactivation at 95°C for 5 min, followed by cooling the samples in an ice bath for 30 min. […] Therefore, a solid phase extraction (SPE) protocol using an Oasis® WCX μelution plate (Waters, Zellik, Belgium) was used prior to HPLC-UV analysis. In the Supporting Information, the protocol of the SPE extraction procedure is described (S1 Text). Blank control solutions were prepared as described above, but without adding the peptide. To confirm chemical stability and mass balance, control reference solutions without tissue homogenate or with a prior heat inactivation were analyzed as well. The HPLC-UV system consisted of a Waters Alliance 2695 separation module and a Waters 2996 photodiode array (PDA) detector (detection from 190-400 nm, quantification at 215 nm), fitted with Empower 2 software for data handling (Waters). […] Appropriate gradients for separation of the peptides and their metabolites were created by mixtures of water (0.1% trifluoroacetic acid m/V) and acetonitrile (0.1% trifluoroacetic acid m/V).

[2] = test system: blood-brain barrier (BBB); test: Brain-to-blood transport (efflux) after intracerebroventricular injection; conditions: ICR-CD-1 mice
Procedure: Female, ICR-CD-1 mice (Harlan Laboratories, Venray, The Netherlands), aged 7 to 10 weeks and weighing 28–36 g, were used during the in vivo BBB transport experiments. All animal experiments were performed in accordance with the Ethical Committee principles of laboratory animal welfare. The protocol was approved by the Ethical Committee of the Faculty of Veterinary Science of Ghent University (Permit Numbers: 2009–052 and 2014–128). Prior to experiments, mice were anesthetized by intraperitoneal injection of a 40% urethane solution (3 g/kg) (Sigma-Aldrich, Diegem, Belgium).
For evaluation of the efflux of the peptides out of the brain, 1 μl of a radioiodinated peptide solution (25000 cpm/μl) was injected in the lateral ventricle of anesthetized ICR-CD-1 mice at a speed of 360 μl/h for 10 s using a syringe pump (KDS100, KR analytical, Cheshire, UK). […] The brain half-time disappearance (t1/2,brain) was calculated from the linear regression of the natural logarithm of the residual radioactivity in brain versus time as follows: t1/2,brain=ln(2)/kout (5) with kout defined as the efflux rate constant calculated as the absolute value of the slope of the linear regression, applying first order kinetics. An extensive description of the protocol can be found elsewhere.

[3] = test system: blood-brain barrier (BBB); test: Classification of peptides according to their BBB influx; conditions: classification method of ref [61] applied to the measured influx
Description: This peptide is derived from the murine vascular endothelial (VE)-cadherin, located in the adherens junctions between the vascular endothelial cells, and constitutes the 13 cytosolic amino acids closest to the membrane and five amino acids from the C-terminus of the transmembrane region (615–632).

[4] = In vitro metabolic stability in mouse kidney homogenate; format: in vitro ADME; conditions: mouse kidney homogenate 0.6 mg/ml protein (500 μl, 300 μg protein) + Krebs-Henseleit buffer pH 7.4, 0.1 mg/ml peptide, 37°C, 750 rpm, 0-120 min, HPLC-UV 215 nm
Procedure: as §1

[5] = In vitro metabolic stability in mouse brain homogenate; format: in vitro ADME; conditions: mouse brain homogenate 0.6 mg/ml protein (500 μl, 300 μg protein) + Krebs-Henseleit buffer pH 7.4, 0.1 mg/ml peptide, 37°C, 750 rpm, 0-120 min, HPLC-UV 215 nm
Procedure: as §1

[6] = test system: brain parenchyma and capillaries; test: Capillary depletion method: brain parenchyma/capillary distribution; format: in vivo, ICR-CD-1 mice; conditions: capillary depletion, 10 min after IV injection of radiolabeled peptide (200 μl, 10000 cpm/μl), brain perfused with lactated Ringer's buffer, two ICR-CD-1 mice, gamma counter
Procedure: The capillary depletion method was used to evaluate the distribution of the peptide between the brain parenchyma and capillaries. In summary (see Materials and Methods in [45]), 200 μl of a radiolabeled peptide solution (10000 cpm/μl) was injected in the jugular externalis vein of two anesthetized ICR-CD-1 mice. Ten minutes after IV injection, mice were decapitated and brains were collected and measured for radioactivity. […] The resulting homogenate was weighed and centrifuged at 5400 g for 30 min at 4°C, resulting in a pellet, i.e. capillaries, and supernatant, i.e. parenchyma and fat tissue, which were weighed and measured in the gamma counter. […] Compartmental distribution was calculated as follows: Fractioncapillaries or parenchyma (%)=[…] or parenchyma/[…]×100 (4)

[7] = In vitro metabolic stability in mouse liver homogenate; format: in vitro ADME; conditions: mouse liver homogenate 0.6 mg/ml protein (500 μl, 300 μg protein) + Krebs-Henseleit buffer pH 7.4, 0.1 mg/ml peptide, 37°C, 750 rpm, 0-120 min, HPLC-UV 215 nm
Procedure: as §1

cellular uptake = test system: cellular uptake; set-up: method as in Stalmans et al.[1]; conditions: cell-penetrating (CP-) response, quantitative expression of cellular influx; ref Stalmans et al.[1]; cited from earlier work
[8] = test system: blood-brain barrier (BBB); test: Multiple time regression (MTR) analysis, blood-to-brain influx; format: in vivo, ICR-CD-1 mice; conditions: whole brain, ± 65% confidence limits
Procedure: Shortly, 200 μl of the radioiodinated CPP solution (30000 cpm/μl) was injected into the right jugular externalis vein of anesthetized ICR-CD-1 mice, which were then decapitated at 1, 3, 5, 10, 12.5 and 15 min post injection, with first and last time points performed in duplicate, after which brains were collected and measured for radioactivity using a gamma counter (Wallac Wizard 1470, Perkin Elmer). Shortly before decapitation, blood was collected from the left carotid artery, which was centrifuged (10000 g, 15 min at 21°C) in order to measure the radioactivity of blood and serum. Dermorphin and radioiodinated BSA were used as positive and negative control, respectively. The blood-to-brain entry during the experimental period of 15 min was evaluated by plotting the ratio of brain (Am(T)) and serum activity (Cp(T)), corrected for the brain weight and serum volume, respectively, versus the exposure time (Θ), expressing the theoretical steady state serum level of the iodinated peptide at a given serum concentration [37, 73]. The exposure time is calculated as the integral of the arterial serum radioactivity over time divided by the radioactivity at time t. The integral is calculated through the trapezoidal rule of the log-transformed data [73]. In the linear part of the curve, assuming a two-compartmental BBB model, data can be fitted using a linear model from which the unidirectional influx rate (Kin), also referred to as unidirectional blood to brain clearance K1 [46], and the initial brain distribution volume (Vi) can be determined using the following equation according to Gjedde and Patlak [37–40]: Am(T)/Cp(T)=Abrain(T)/Aserum(T)=Kin⋅Θ+Vi with Θ = ∫0TCp(t) ⋅ dt/Cp(T) (1)

## AGYLLGKINLKPLAALAKKIL-NH2 [TP10-2, transportan analog differing one amino acid from TP10]
[1]; mouse serum 500 μl + 400 μl Krebs-Henseleit buffer pH 7.4 + 100 μl 1 mg/ml peptide, 37°C, 750 rpm, sampling 0-120 min plus early points, HPLC-UV 215 nm, t1/2 = -ln(2)/slope
  Half-life, serum: 3.823 h
[1]; mouse serum in Krebs-Henseleit buffer pH 7.4, 37°C, SPE then HPLC-UV
  Serum half-life: 4 h
[2]; 1 μl radioiodinated peptide (25000 cpm/μl) in lateral ventricle, 1-15 min, slope of ln(brain activity) vs time
  kout (efflux transfer constant): 0.06 ± 0.01 min⁻¹
[2]; ln(2)/kout after intracerebroventricular injection
  t1/2,brain (half-time disappearance): 0.183 h
[3]
  BBB influx class: class 2
[4]
  Half-life, kidney: 0.188 h
[5]
  Half-life, brain: 1.705 h
[6]
  Parenchymal fraction: 84%
[7]
  Half-life, liver: 1.97 h
Cellular uptake
  CP-response: 0.749
[8]; 125I-radioiodinated peptide, IV jugular vein 200 μl (30000 cpm/μl), anesthetized female ICR-CD-1 mice, 1-15 min, brain/serum radioactivity (gamma counter) vs exposure time, pVEC, SynB3, TP10: two experiments fitted together
  Kin (unidirectional influx rate), linear Gjedde-Patlak model: 0.36 µL/g/min and 0.36 ± 0.06 µL/g/min
[8]; 125I-radioiodinated, IV, ICR-CD-1 mice, MTR 1-15 min
  Vi (initial brain distribution volume), linear Gjedde-Patlak model: 10.07 ± 1.00 µL/g
